Article PMC13266999, “Designing Antibiotics with Inherent Resistance to Efflux as a Strategy to Revive Discovery against Multidrug-Resistant Pathogens” (Journal of Medicinal Chemistry, 2026)
“And” between values parts separate entries of the source, which are not always exact repeats. Equal values may be shown once. Read-outs that look alike come from different tables or passages of the source.

Assays:
[1] = biological target: CYP2D6 (Homo sapiens, UniProt P10635); test: CYP inhibition; conditions: HLM, dextromethorphan substrate, 10 μM
Description: (§2) Cytochrome P450 inhibition was assessed in vitro using human recombinant enzymes in microsomal preparations. […] Enzyme activity was quantified by monitoring formation of substrate-specific metabolites, and percent inhibition was calculated relative to vehicle control.

[2] = system: WI38; test: Toxicity in nontumor eukaryotic cell line; type: cell-based; conditions: 100 μM, the highest concentration tested
[3] = biological target: CYP2C9 (Homo sapiens, UniProt P11712); test: CYP inhibition; conditions: HLM, diclofenac substrate
Description: as §2

[4] = Plasma protein binding (RED); type: in vitro ADME; conditions: pH 7.4
Description: Plasma protein binding was measured using a Rapid Equilibrium Dialysis (RED) assay. Test compounds and control compounds were added to plasma at 10 μM and dialyzed against phosphate-buffered saline (PBS, pH 7.4) for 4 h at 37 °C. […] The percentage of drug bound to plasma proteins was calculated by comparing the analyte response in the plasma compartment with that in the buffer compartment.

[5] = Maximum tolerated dose study; conditions: for B.W.: animals N 1-3;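 for all read-outs here: male ICR mice given oral doses under a stepwise escalation scheme to find the highest tolerated dose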
[6] = in vivo; conditions: male, mouse, po
[7] = system: CYP3A; test: CYP inhibition; conditions: HLM; for inhibition at 10 µM: human, human liver microsomes, CYP3A inhibition
Description: as §2

[8] = system: AR (h); test: SafetyScreen44; design: species or system human; conditions: agonist radioligand, specific binding, 1.0E-05 M
Description: (§1) Off-target pharmacology was evaluated using the Eurofins SafetyScreen44 in vitro panel. […] Binding assays were performed using radioligand displacement, and enzyme or uptake assays measured inhibition of control activity using validated detection methods (scintillation counting, fluorimetry or photometry). Responses were expressed as percent inhibition of control binding or activity. Based on Eurofins interpretation guidelines, effects ≥50% were considered significant, effects between 25% and 50% weak to moderate, and effects <25% were not considered biologically relevant.

[9] = biological target: CYP2C8 (Homo sapiens, UniProt P10632); test: CYP inhibition; conditions: HLM, amodiaquine substrate
Description: as §2

[10] = system: S. aureus SA-1199 WT and SA-1199B; test: Accumulation assay; type: cell-based; conditions: SA-1199B compared to SA-1199
Description: Minor adjustments were made to the protocol previously described by Geddes and Hergenrother. After centrifugation in oil to remove excess compound, the pellets were dissolved in 200 μL of ultrapure sterile water and subjected to five freeze–thaw cycles. Each cycle consisted of 1 min in a dry ice and ethanol bath, followed by vortexing and 3 min in a heat block at 65 °C. Miles Misra viable counts were used to determine the number of colony-forming units (CFUs) for each replicate. These counts were performed for the 0.55 OD inoculum, postcompound incubation, solvent-only control, and lysates.
A 20 μL sample was injected into an Onyx monolithic C18 column and run using a gradient method. The mobile phase began with 10% acetonitrile and 90% water, with the acetonitrile content increased to 90% over 7 min, maintained for 2 min, and then returned to 10%. The area under the curve was automatically calculated using Agilent ChemStation software to determine the level of accumulation within the bacterial cells. Finally, the data were analyzed using GraphPad Prism 10.4.1. Unpaired t test was conducted to evaluate the statistical significance of the level of efflux in the efflux mutant S. aureus 1199B strain compared to the wild-type S. aureus 1199 strain.

[11] = biological target: T1, COX2(h) (Homo sapiens, UniProt P35354); test: SafetyScreen44; type: biochemical; conditions: enzymatic activity, 1.0E-05 M
T1 construct: purchased Eurofins (SafetyScreen44)
Description: as §1

[12] = system: A. baumannii; test: A. baumannii efflux chequerboard assay; type: cell-based, Acinetobacter baumannii; conditions: for MIC: Acinetobacter baumannii
Description: Checkerboard assays were performed by preparing two separate 2-fold dilution series of compounds in two 96 well plates, one horizontally, one vertically. […] Plates were incubated at 37 C for 20 h and the absorbance (OD600) was read on a CLARIOstar spectrophotometer (BMG Labtech). The fractional inhibitory concentration was calculated as follows: ΣFIC = [(MIC of A in combination)/(MIC of A alone)] + [(MIC of B in combination)/(MIC of B alone)].

[13] = PO 100 mg/kg, 72 hrs after final dose, 100 mg/kg
[14] = PO 100 mg/kg, Pre-dose, 100 mg/kg
[15] = PO 200 mg/kg, 72 hrs after final dose, 200 mg/kg
[16] = PO 200 mg/kg, Pre-dose, 200 mg/kg
[17] = PO 400 mg/kg, 72 hrs after final dose, 400 mg/kg
[18] = PO 400 mg/kg, Pre-dose, 400 mg/kg
[19] = probe midazolam, midazolam substrate
[20] = probe testosterone, testosterone substrate

Sequence of CYP2D6 (P10635 whole entry): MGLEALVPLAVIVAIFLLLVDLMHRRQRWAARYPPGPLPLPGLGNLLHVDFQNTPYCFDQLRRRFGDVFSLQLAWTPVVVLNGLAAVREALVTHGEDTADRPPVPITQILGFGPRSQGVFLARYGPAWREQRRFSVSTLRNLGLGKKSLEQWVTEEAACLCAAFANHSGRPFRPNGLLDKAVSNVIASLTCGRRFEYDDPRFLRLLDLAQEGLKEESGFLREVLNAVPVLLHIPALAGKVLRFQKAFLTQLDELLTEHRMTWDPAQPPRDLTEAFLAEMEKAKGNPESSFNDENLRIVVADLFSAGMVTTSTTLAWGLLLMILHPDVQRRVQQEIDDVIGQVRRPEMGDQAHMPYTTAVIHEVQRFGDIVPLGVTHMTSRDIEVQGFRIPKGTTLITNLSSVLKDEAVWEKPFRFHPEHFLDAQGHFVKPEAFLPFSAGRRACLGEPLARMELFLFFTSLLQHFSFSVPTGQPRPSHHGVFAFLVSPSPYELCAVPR
Sequence of CYP2C8 (P10632 whole entry): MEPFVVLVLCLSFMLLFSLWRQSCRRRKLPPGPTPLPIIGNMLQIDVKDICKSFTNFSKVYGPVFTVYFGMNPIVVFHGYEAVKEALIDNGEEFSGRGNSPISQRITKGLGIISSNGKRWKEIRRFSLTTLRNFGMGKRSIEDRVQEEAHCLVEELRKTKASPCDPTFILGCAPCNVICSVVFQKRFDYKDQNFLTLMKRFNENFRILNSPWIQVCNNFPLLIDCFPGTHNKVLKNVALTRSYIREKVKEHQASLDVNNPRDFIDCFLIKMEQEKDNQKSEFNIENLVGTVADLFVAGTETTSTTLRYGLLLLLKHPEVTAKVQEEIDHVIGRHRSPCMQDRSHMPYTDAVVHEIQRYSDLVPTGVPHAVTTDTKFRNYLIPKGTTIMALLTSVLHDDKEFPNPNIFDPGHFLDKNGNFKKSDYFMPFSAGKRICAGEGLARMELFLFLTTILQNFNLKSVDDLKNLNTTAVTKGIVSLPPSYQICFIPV
T1 sequence (P35354 18-604): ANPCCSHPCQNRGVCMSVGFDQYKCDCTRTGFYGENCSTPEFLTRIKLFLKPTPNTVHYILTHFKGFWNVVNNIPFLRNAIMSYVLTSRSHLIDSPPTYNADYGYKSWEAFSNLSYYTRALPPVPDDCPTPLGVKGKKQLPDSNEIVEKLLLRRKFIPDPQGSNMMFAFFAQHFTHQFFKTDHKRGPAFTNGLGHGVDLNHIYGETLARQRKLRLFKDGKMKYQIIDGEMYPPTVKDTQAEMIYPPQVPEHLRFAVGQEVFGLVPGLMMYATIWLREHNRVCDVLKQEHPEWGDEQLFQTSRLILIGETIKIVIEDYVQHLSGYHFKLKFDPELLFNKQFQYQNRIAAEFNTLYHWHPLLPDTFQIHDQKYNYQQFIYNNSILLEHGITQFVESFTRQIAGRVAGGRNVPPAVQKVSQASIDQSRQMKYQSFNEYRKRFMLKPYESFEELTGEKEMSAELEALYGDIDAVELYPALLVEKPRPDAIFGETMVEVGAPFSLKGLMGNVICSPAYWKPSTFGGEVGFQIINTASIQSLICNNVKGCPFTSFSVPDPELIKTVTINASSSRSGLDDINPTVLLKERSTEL
Sequence of CYP2C9 (P11712 whole entry): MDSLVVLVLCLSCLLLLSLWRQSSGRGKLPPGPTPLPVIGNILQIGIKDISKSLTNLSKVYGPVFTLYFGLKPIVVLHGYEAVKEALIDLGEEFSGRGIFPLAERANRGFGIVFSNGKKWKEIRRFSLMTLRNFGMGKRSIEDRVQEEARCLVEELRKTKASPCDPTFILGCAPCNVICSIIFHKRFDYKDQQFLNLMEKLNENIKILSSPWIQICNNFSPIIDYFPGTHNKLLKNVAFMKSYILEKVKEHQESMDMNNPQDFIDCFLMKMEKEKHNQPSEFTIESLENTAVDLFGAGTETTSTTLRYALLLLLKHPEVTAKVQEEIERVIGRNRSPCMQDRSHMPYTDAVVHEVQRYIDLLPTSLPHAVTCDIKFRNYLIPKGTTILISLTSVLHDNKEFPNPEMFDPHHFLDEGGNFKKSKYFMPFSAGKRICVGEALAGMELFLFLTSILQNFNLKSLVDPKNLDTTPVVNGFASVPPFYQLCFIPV

C[C@H]1COc2c(N3CC[C@@H](Nc4ncccn4)C3)c(F)cc3c(=O)c(C(=O)O)cn1c23 [Compound 46, (S)-9-Fluoro-3-methyl-7-oxo-10-((R)-3-(pyrimidin-2-ylamino)pyrrolidin-1-yl)-2,3-dihydro-7H-[1,4]oxazino[2,3,4-ij]quinoline-6-carboxylic acid]
CYP2D6 inhibition [1]: 0.0%
toxicity in WI38 [2]: nontoxic
CYP2C9 inhibition ([3]; 10 μM): 12.8%
fraction unbound at 4 h, 10 μM [4]: 0.42
B.W. [5, 13]: 25 and 27
B.W. [5, 14]: 24 and 25
B.W. [5, 15]: 26 and 27
B.W. [5, 16]: 24 and 23
B.W. [5, 17]: 26 and 22 and 24
B.W. [5, 18]: 21 and 20 and 22
MTD at 72 h ([6]; ICR): ≥ 400 mg/kg
inhibition at 10 µM [7, 19]: 25.2%
inhibition at 10 µM [7, 20]: 6.5%
% Inhibition [8]: 4.241%
CYP2C8 inhibition ([9]; 10 μM): 3.1%
level of accumulation [10]: no significant change in accumulation
% Inhibition [11]: 8.111%

Cc1cc(C)nc(N[C@@H]2CCN(c3c(F)cc4c(=O)c(C(=O)O)cn5c4c3OC[C@@H]5C)C2)n1 [Compound 50, (S)-10-((R)-3-((4,6-Dimethylpyrimidin-2-yl)amino)pyrrolidin-1-yl)-9-fluoro-3-methyl-7-oxo-2,3-dihydro-7H-[1,4]oxazino[2,3,4-ij]quinoline-6-carboxylic acid]
CYP2D6 inhibition [1]: 3.804% and < 10%
toxicity in WI38 [2]: nontoxic
inhibition at 10 µM ([3]; human, human liver microsomes, probe diclofenac, CYP2C9 inhibition): 16.8%
fraction unbound at 4 h, 10 μM [4]: 0.28
Response (death/test) ([5]; PO 100 mg/kg, 1 hr after 1st dosing): 0/3
Response (death/test) ([5]; PO 100 mg/kg, 1 hr after 2nd dosing): 0/3
Response (death/test) ([5]; PO 100 mg/kg, 1 hr after 3rd dosing): 0/3
Response (death/test) ([5]; PO 100 mg/kg, 2 hrs after 3rd dosing): 0/3
Response (death/test) ([5]; PO 100 mg/kg, 6 hrs after 1st dosing): 0/3
Response (death/test) ([5]; PO 100 mg/kg, 6 hrs after 2nd dosing): 0/3
Response (death/test) ([5]; PO 100 mg/kg, 24 hrs after 3rd dosing): 0/3
Response (death/test) ([5]; PO 100 mg/kg, 48 hrs after 3rd dosing): 0/3
Response (death/test) ([5]; PO 100 mg/kg, 72 hrs after 3rd dosing): 0/3
B.W. [5, 13]: 24 and 25
B.W. [5, 14]: 24 and 23
Response (death/test) ([5]; PO 200 mg/kg, 1 hr after 1st dosing): 0/3
Response (death/test) ([5]; PO 200 mg/kg, 1 hr after 2nd dosing): 0/3
Response (death/test) ([5]; PO 200 mg/kg, 1 hr after 3rd dosing): 0/3
Response (death/test) ([5]; PO 200 mg/kg, 2 hrs after 3rd dosing): 0/3
Response (death/test) ([5]; PO 200 mg/kg, 6 hrs after 1st dosing): 0/3
Response (death/test) ([5]; PO 200 mg/kg, 6 hrs after 2nd dosing): 0/3
Response (death/test) ([5]; PO 200 mg/kg, 24 hrs after 3rd dosing): 0/3
Response (death/test) ([5]; PO 200 mg/kg, 48 hrs after 3rd dosing): 0/3
Response (death/test) ([5]; PO 200 mg/kg, 72 hrs after 3rd dosing): 0/3
B.W. [5, 15]: 25 and 28
B.W. [5, 16]: 23 and 24
Response (death/test) ([5]; PO 400 mg/kg, 1 hr after 1st dosing): 0/3
Response (death/test) ([5]; PO 400 mg/kg, 1 hr after 2nd dosing): 0/3
Response (death/test) ([5]; PO 400 mg/kg, 1 hr after 3rd dosing): 0/3
Response (death/test) ([5]; PO 400 mg/kg, 2 hrs after 3rd dosing): 0/3
Response (death/test) ([5]; PO 400 mg/kg, 6 hrs after 1st dosing): 0/3
Response (death/test) ([5]; PO 400 mg/kg, 6 hrs after 2nd dosing): 0/3
Response (death/test) ([5]; PO 400 mg/kg, 24 hrs after 3rd dosing): 0/3
Response (death/test) ([5]; PO 400 mg/kg, 48 hrs after 3rd dosing): 0/3
Response (death/test) ([5]; PO 400 mg/kg, 72 hrs after 3rd dosing): 0/3
B.W. [5, 17]: 25 and 23
B.W. [5, 18]: 20 and 21
MTD at 72 h [6]: ≥ 400 mg/kg
CYP3A inhibition ([7]; midazolam substrate, 10 μM): 10.5%
inhibition at 10 µM [7, 19]: 10.5%
inhibition at 10 µM [7, 20]: 6.32%
% Inhibition [8]: 3.169%
inhibition at 10 µM ([9]; human, human liver microsomes, probe amodiaquine, CYP2C8 inhibition): 13.4%
inhibition at 10 µM [11]: 25.9%

C[C@H]1COc2c(N3CCN(C)CC3)c(F)cc3c(=O)c(C(=O)O)cn1c23 [Levofloxacin, (S)-9-Fluoro-3-methyl-10-(4-methylpiperazin-1-yl)-7-oxo-2,3-dihydro-7H-[1,4]oxazino[2,3,4-ij]quinoline-6-carboxylic acid, reference compound]
level of accumulation [10]: lower in the NorA-overexpressing SA-1199B strain
MIC +50 (0.25x MIC) ([12]; A. baumannii ATCC 17978): 0.007 to 0.06 µg/mL
MIC +50 (0.5x MIC) ([12]; A. baumannii ATCC 17978): 0.009 to 0.06 µg/mL
MIC +50 (0.25x MIC) ([12]; A. baumannii AYE): 0.014 to 1.88 µg/mL
MIC +50 (0.5x MIC) ([12]; A. baumannii AYE): 0.012 to 0.9 µg/mL
MIC ([12]; ATCC17978, read-out: MIC alone): 0.125 µg/mL
MIC ([12]; read-out: MIC alone): 4 µg/mL
